Reference: patent US6281214A, “Biphenyl derivatives” (Eisai Co., Ltd, priority 1994, dated 2001)
Like-named read-outs stand apart in the source and are kept apart here.

How the values were obtained:
Parameters in all cases: species or system SD rats
serotonin S2 receptor = molecular target: T1, serotonin S2 receptor (Rattus norvegicus, UniProt P14842); assay: serotonin S2 receptor binding test ([3H] Ketanserin Binding Test); conditions: 1 nM [3H] Ketanserin, rat cortex, 37° C., 15 minutes
T1 construct: The receptor fraction prepared from the cortex was molten and suspended; from tissue; host or cells: cerebral cortex of SD rats (membrane fraction)
In short: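 Rat (SD, 6–8 weeks) cortical membranes in 50 mM Tris-HCl pH 7.4 were incubated with 1 nM [3H]ketanserin for 15 min at 37 °C, then filtered and counted. Nonspecific binding was defined with methysergide. IC50 was obtained by probit analysis and converted to Ki using the Scatchard-derived Kd.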

dopamine D2 receptor = molecular target: T2, dopamine D2 receptor (Rattus norvegicus, UniProt P61169); assay: dopamine D2 receptor binding test ([3H] Spiperone Binding Test); conditions: 1 nM [3H] Spiperone, rat corpus striatum, room temperature, 60 minutes
T2 construct: the receptor fraction prepared from the corpus striatum was molten and suspended; from tissue; host or cells: corpus striatum of SD rats (membrane fraction)
In short: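 Rat (SD, 6–8 weeks) corpus striatum membranes in 50 mM Krebs-Tris pH 7.4 were incubated with 1 nM [3H]spiperone at room temperature for 60 minutes, with nonspecific binding defined by excess spiperone. IC50 came from probit analysis; Ki was derived using radioligand concentration and Scatchard Kd.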

adrenergic α1 receptor = adrenergic α1 receptor binding test ([3H] Prazosin Binding Test); conditions: 1 nM [3H] Prazosin, rat cortex, room temperature, 60 minutes
In short: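 Rat (SD, 6-8 weeks) cerebral cortex membranes in 50 mM Tris-HCl pH 7.4 incubated with 1 nM [3H]prazosin for 60 min at room temperature; nonspecific binding defined with phentolamine. IC50 by probit method, converted to Ki using radioligand concentration and Scatchard-derived Kd.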

[1] = read-out: Ki value, dopamine D2 receptor

T2 sequence (P61169 whole entry): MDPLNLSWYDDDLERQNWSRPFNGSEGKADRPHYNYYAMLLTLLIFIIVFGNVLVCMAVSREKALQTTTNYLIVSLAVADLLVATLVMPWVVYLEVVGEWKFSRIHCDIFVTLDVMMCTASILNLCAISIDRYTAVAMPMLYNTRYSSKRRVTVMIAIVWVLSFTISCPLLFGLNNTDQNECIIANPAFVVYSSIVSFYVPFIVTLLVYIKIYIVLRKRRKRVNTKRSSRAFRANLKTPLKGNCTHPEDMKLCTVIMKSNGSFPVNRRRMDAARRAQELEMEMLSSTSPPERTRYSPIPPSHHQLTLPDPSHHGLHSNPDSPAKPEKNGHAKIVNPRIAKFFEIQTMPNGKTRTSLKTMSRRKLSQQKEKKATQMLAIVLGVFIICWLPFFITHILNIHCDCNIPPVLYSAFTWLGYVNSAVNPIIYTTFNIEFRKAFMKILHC
T1 sequence (P14842 whole entry): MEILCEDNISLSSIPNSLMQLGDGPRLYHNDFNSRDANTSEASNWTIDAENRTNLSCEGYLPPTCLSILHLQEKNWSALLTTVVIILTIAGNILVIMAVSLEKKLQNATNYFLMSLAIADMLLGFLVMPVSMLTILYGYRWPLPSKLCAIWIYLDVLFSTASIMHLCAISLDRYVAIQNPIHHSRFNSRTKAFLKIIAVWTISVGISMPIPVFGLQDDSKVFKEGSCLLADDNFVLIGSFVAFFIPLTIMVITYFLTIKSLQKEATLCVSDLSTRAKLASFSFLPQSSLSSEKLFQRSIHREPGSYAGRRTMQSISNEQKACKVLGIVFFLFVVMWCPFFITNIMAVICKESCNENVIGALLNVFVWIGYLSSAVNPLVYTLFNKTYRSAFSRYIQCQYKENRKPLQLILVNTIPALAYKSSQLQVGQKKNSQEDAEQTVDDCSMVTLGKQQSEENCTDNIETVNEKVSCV

Row | Structure (SMILES) | Ki (serotonin S2 receptor) | Ki (dopamine D2 receptor; [1]) | Ki (adrenergic α1 receptor) | Ki (dopamine D2 receptor; Ki value, dopamine D2 receptor)
1 | CCN1CCN(c2cc(-c3ccccc3)c(OC)c(C3CCCO3)c2)CC1 (stereo not drawn) [Example 95, 1-Ethyl-4-[3-phenyl-4-methoxy-5-(2-tetrahydrofuranyl)]phenylpiperazine] | 40.9 nM | 104 nM | 279 nM | –
2 | CCN1CCN(c2cc(-c3ccccc3)c(OC)c(C(F)Cc3ccccc3)c2)CC1 (stereo not drawn) [Example 96, 1-Ethyl-4-[3-phenyl-4-methoxy-5-(1-fluorophenethyl)]phenylpiperazine] | 35.3 nM | 1.33 nM | > 1000 nM | –
3 | CCN1CCN(c2cc(-c3ccccc3)c(OC)c(-c3ccccn3)c2)CC1 [Example 97, 1-Ethyl-4-[3-phenyl-4-methoxy-5-(2-pyridyl)]phenylpiperazine] | 247 nM | > 1000 nM | > 1000 nM | –
4 | CCN1CCN(c2cc(C(Cc3ccc(F)cc3)=NO)c(OC)c(-c3ccccc3)c2)CC1 [Example 98, 1-Ethyl-4-{3-phenyl-4-methoxy-5-[4-fluoro-(1-hydroxyimino)phentheyl]}phenylpiperazine] | 19.3 nM | 64.5 nM | > 1000 nM | –
5 | CCN1CCN(c2cc(-c3ccccc3)c(OC)c(C(F)Cc3ccccn3)c2)CC1 (stereo not drawn) [Example 99, 1-Ethyl-4-{3-phenyl-4-methoxy-5-[1-fluoro-2-(2-pyridyl)ethyl]}phenylpiperazine] | 170 nM | 2.93 nM | > 1000 nM | –
6 | C/C=C/c1cc(N2CCN(CC)CC2)cc(-c2ccccc2)c1OC [Example 100, 1-Ethyl-4-[3-phenyl-4-methoxy-5-(1-propenyl)]phenylpiperazine hydrochloroide] | 827 nM | 82.7 nM | 846 nM | –
7 | CCCc1cc(N2CCN(CC)CC2)cc(-c2cccc(F)c2)c1OC [Example 101, 1-Ethyl-4-[3-(3-fluorophenyl)-4-methoxy-5-propyl]phenylpiperazine] | 262 nM | 118 nM | > 1000 nM | –
8 | CCN1CCN(c2cc(CO)c(OC)c(-c3ccccc3)c2)CC1 [Example 102, 1-Ethyl-4-(3-phenyl-4-methoxy-5-hydroxymethyl)phenylpiperazine] | > 1000 nM | > 1000 nM | 525 nM | –
9 | CCN1CCN(c2cc(C(=O)Cc3ccncc3)c(OC)c(-c3ccccc3)c2)CC1 [Example 103, 1-Ethyl-4-[3-phenyl-4-methoxy-5-(4-pyridyl)acetyl]phenylpiperazine] | 6.65 nM | 101 nM | > 1000 nM | –
10 | CCN1CCN(c2cc(-c3ccccc3)c(OC)c([S+](C)[O-])c2)CC1 (stereo not drawn) [Example 104, 1-Ethyl-4-(3-phenyl-4-methoxy-5-methanesulfinyl)phenylpiperazine] | 24.5 nM | 70.1 nM | > 1000 nM | –
11 | CCN1CCN(c2cc(-c3ccccc3)c(OC)c([S+]([O-])CC)c2)CC1 (stereo not drawn) [Example 105, 1-Ethyl-4-(3-phenyl-4-methoxy-5-ethanesulfinyl)phenylpiperazine] | 5.21 nM | 30.2 nM | 620 nM | –
12 | CCN1CCN(c2cc(C=O)c(OC)c(-c3ccccc3)c2)CC1 [Example 106, 1-Ethyl-4-(3-phenyl-4-methoxy-5-formyl)phenylpiperazine] | 380 nM | – | > 1000 nM | 44 nM
13 | CCN1CCN(c2cc(-c3ccccc3)c(OC)c(C3OCCCO3)c2)CC1 [Example 107, 1-Ethyl-4-[3-phenyl-4-methoxy-5-(1,3-dioxan-2yl)]phenylpiperazine] | > 1000 nM | 429 nM | > 1000 nM | –
14 | CCN1CCN(c2cc(C(=O)CC3CC3)c(OC)c(-c3ccccc3)c2)CC1 [Example 108, Ethyl-4-(3-phenyl-4-methoxy-5-cyclopropaneacetyl)phenylpiperazine] | 4 nM | 162 nM | 408 nM | –
15 | CCN1CCN(c2cc(C(=O)c3ccccn3)c(OC)c(-c3ccccc3)c2)CC1 [Example 109, 1-Ethyl-4-[3-phenyl-4-methoxy-5-(2-pyridylcarbonyl)]phenylpiperazine] | 230 nM | > 1000 nM | > 1000 nM | –
